Source: the supplement of paper PMC10627819

Tests used:
S. aureus DSM 20231 = experiment: Bliss interaction score (quartile over a dose matrix) (fitness difference); higher = more antagonism (negative = synergy)
Method in brief: (§1)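 Combination data were used to infer fitness under each single drug. Fitness is the OD595 at entry into stationary phase divided by the robust mean of the plate's no-drug wells, with a cap of 1. The Bliss score is the observed minus the expected product fitness, summarised by quartiles over technical, biological and donor/recipient replicates.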

B. subtilis 168 = experiment: as above
Method in brief: as §1

S. pneumoniae D39V [1] = experiment: as above
Method in brief: as §1

S. aureus Newman [2] = experiment: as above
Method in brief: as §1

S. pneumoniae D39V [3] = experiment: fitness (endpoint OD595 vs no drug) (fraction); higher = more growth
Method in brief: (§2)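 Fitness was measured as bacterial growth in 384-well plates inoculated at OD595 0.01 (30 µl, or 55 µl for S. pneumoniae). Media were TSB, LB Lennox or CY, at 37 °C. OD595 was read every 30 min for 14 h and background-subtracted against the first reading. Fitness is OD595 at the transition into stationary phase divided by the robust mean of no-drug control wells, capped at 1.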

S. aureus Newman [4] = experiment: as above; conditions: one replicate
Method in brief: as §2
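Wherever Bliss interaction score (quartile over a dose matrix) is given: first quartile when negative (synergy) and third quartile when positive (antagonism).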

C/C(=C\C(=O)OCCCCCCCCC(=O)O)C[C@@H]1OC[C@H](C[C@@H]2O[C@H]2[C@@H](C)[C@H](C)O)[C@@H](O)[C@H]1O [Pseudomonic acid] + CN[C@@H]1[C@H](O)[C@H](NC)[C@H]2O[C@@]3(O)C(=O)C[C@@H](C)O[C@H]3O[C@@H]2[C@H]1O [Spectinomycin]
Conditions | Bliss interaction score
B. subtilis 168 | 0.0538
S. aureus DSM 20231 | -0.0116
S. aureus Newman [2] | -0.0301
S. pneumoniae D39V [1] | -0.0665

fitness
Conditions | first compound 0.03 µg/mL | first compound 0.0313 µg/mL | first compound 0.06 µg/mL | first compound 0.0625 µg/mL | first compound 0.12 µg/mL | first compound 0.125 µg/mL
S. aureus Newman [4], partner 4 µg/mL | – | 0.0277 | – | 0.0288 | – | 0.0466
S. aureus Newman [4], partner 8 µg/mL | – | 0.0165 | – | 0.0234 | – | 0.0364
S. aureus Newman [4], partner 16 µg/mL | – | 0.0048 | – | 0.0214 | – | 0.0111
S. pneumoniae D39V [3], partner 4 µg/mL | 0.899 | – | 0.87 | – | 0.564 | –
S. pneumoniae D39V [3], partner 8 µg/mL | 0.924 | – | 0.793 | – | 0.53 | –
S. pneumoniae D39V [3], partner 16 µg/mL | 0.756 | – | 0.716 | – | 0.443 | –

C/C(=C\C(=O)OCCCCCCCCC(=O)O)C[C@@H]1OC[C@H](C[C@@H]2O[C@H]2[C@@H](C)[C@H](C)O)[C@@H](O)[C@H]1O [Pseudomonic acid] + CN[C@@H]1[C@H](O[C@H]2[C@H](O[C@H]3[C@H](O)[C@@H](O)[C@H](N=C(N)N)[C@@H](O)[C@@H]3N=C(N)N)O[C@@H](C)[C@]2(O)C=O)O[C@@H](CO)[C@H](O)[C@H]1O [Streptomycin]
Conditions | Bliss interaction score
B. subtilis 168 | 0.0523
S. aureus DSM 20231 | -0.013
S. aureus Newman [2] | -0.0275
S. pneumoniae D39V [1] | -0.178

fitness
Conditions | first compound 0.03 µg/mL | first compound 0.0313 µg/mL | first compound 0.06 µg/mL | first compound 0.0625 µg/mL | first compound 0.12 µg/mL | first compound 0.125 µg/mL
S. aureus Newman [4], partner 2 µg/mL | – | 0.0148 | – | 0.0368 | – | 0.0312
S. aureus Newman [4], partner 4 µg/mL | – | 0.0183 | – | 0.0224 | – | 0.0173
S. aureus Newman [4], partner 8 µg/mL | – | 0.0145 | – | 0.0198 | – | 0.0269
S. pneumoniae D39V [3], partner 2 µg/mL | 0.897 | – | 0.719 | – | 0.52 | –
S. pneumoniae D39V [3], partner 4 µg/mL | 0.903 | – | 0.708 | – | 0.491 | –
S. pneumoniae D39V [3], partner 8 µg/mL | 0.699 | – | 0.565 | – | 0.384 | –

S. pneumoniae D39V [3], partner 16 µg/mL, one replicate
Conditions | fitness
first compound 0.03 µg/mL | 0.545
first compound 0.06 µg/mL | 0.439
first compound 0.12 µg/mL | 0.238

C/C(=C\C(=O)OCCCCCCCCC(=O)O)C[C@@H]1OC[C@H](C[C@@H]2O[C@H]2[C@@H](C)[C@H](C)O)[C@@H](O)[C@H]1O [Pseudomonic acid] + CN[C@H](CC(C)C)C(=O)N[C@H]1C(=O)N[C@@H](CC(N)=O)C(=O)N[C@H]2C(=O)N[C@H]3C(=O)N[C@H](C(=O)N[C@H](C(=O)O)c4cc(O)cc(O)c4-c4cc3ccc4O)[C@H](O)c3ccc(c(Cl)c3)Oc3cc2cc(c3O[C@@H]2O[C@H](CO)[C@@H](O)[C@H](O)[C@H]2O[C@H]2C[C@](C)(N)[C@H](O)[C@H](C)O2)Oc2ccc(cc2Cl)[C@H]1O [Vancomycin]
Conditions | Bliss interaction score
B. subtilis 168 | 0.0278
S. aureus DSM 20231 | -0.0086
S. aureus Newman [2] | -0.0276
S. pneumoniae D39V [1] | 0.137

Conditions | fitness
S. aureus Newman [4], first compound 0.0313 µg/mL, partner 0.1875 µg/mL | 0.0232
S. aureus Newman [4], first compound 0.0313 µg/mL, partner 0.375 µg/mL | 0.0206
S. aureus Newman [4], first compound 0.0313 µg/mL, partner 0.75 µg/mL | 0.0349
S. aureus Newman [4], first compound 0.0625 µg/mL, partner 0.1875 µg/mL | 0.0221
S. aureus Newman [4], first compound 0.0625 µg/mL, partner 0.375 µg/mL | 0.0409
S. aureus Newman [4], first compound 0.0625 µg/mL, partner 0.75 µg/mL | 0.053
S. aureus Newman [4], first compound 0.125 µg/mL, partner 0.1875 µg/mL | 0.0473
S. aureus Newman [4], first compound 0.125 µg/mL, partner 0.375 µg/mL | 0.0505
S. aureus Newman [4], first compound 0.125 µg/mL, partner 0.75 µg/mL | 0.0388
S. pneumoniae D39V [3], first compound 0.03 µg/mL, partner 0.03125 µg/mL | 0.983
S. pneumoniae D39V [3], first compound 0.03 µg/mL, partner 0.0625 µg/mL | 0.973
S. pneumoniae D39V [3], first compound 0.03 µg/mL, partner 0.125 µg/mL | 0.9
S. pneumoniae D39V [3], first compound 0.06 µg/mL, partner 0.03125 µg/mL | 0.873
S. pneumoniae D39V [3], first compound 0.06 µg/mL, partner 0.0625 µg/mL | 0.865
S. pneumoniae D39V [3], first compound 0.06 µg/mL, partner 0.5 µg/mL | 0.259
S. pneumoniae D39V [3], first compound 0.12 µg/mL, partner 0.03125 µg/mL | 0.641
S. pneumoniae D39V [3], first compound 0.12 µg/mL, partner 0.0625 µg/mL | 0.611
S. pneumoniae D39V [3], first compound 0.12 µg/mL, partner 0.5 µg/mL | 0.21

C/C(=C\C(=O)OCCCCCCCCC(=O)O)C[C@@H]1OC[C@H](C[C@@H]2O[C@H]2[C@@H](C)[C@H](C)O)[C@@H](O)[C@H]1O [Pseudomonic acid] + COc1ccc(C[C@H](N)C(=O)N[C@H]2[C@@H](O)[C@H](n3cnc4c(N(C)C)ncnc43)O[C@@H]2CO)cc1 [Puromycin]
Conditions | Bliss interaction score
B. subtilis 168 | -0.0341
S. aureus DSM 20231 | 0.01
S. aureus Newman [2] | 0.0128
S. pneumoniae D39V [1] | -0.209

fitness
Conditions | first compound 0.03 µg/mL | first compound 0.0313 µg/mL | first compound 0.06 µg/mL | first compound 0.0625 µg/mL | first compound 0.12 µg/mL | first compound 0.125 µg/mL
S. aureus Newman [4], partner 0.39 µg/mL | – | 0.0558 | – | 0.0476 | – | 0.0585
S. aureus Newman [4], partner 0.78 µg/mL | – | 0.0593 | – | 0.043 | – | 0.0499
S. aureus Newman [4], partner 1.56 µg/mL | – | 0.054 | – | 0.0656 | – | 0.0613
S. pneumoniae D39V [3], partner 1 µg/mL | 0.901 | – | 0.774 | – | 0.556 | –
S. pneumoniae D39V [3], partner 2 µg/mL | 0.896 | – | 0.73 | – | 0.428 | –
S. pneumoniae D39V [3], partner 4 µg/mL | 0.735 | – | 0.491 | – | 0.246 | –

C/C(=C\C(=O)OCCCCCCCCC(=O)O)C[C@@H]1OC[C@H](C[C@@H]2O[C@H]2[C@@H](C)[C@H](C)O)[C@@H](O)[C@H]1O [Pseudomonic acid] + Cc1cc(NS(=O)(=O)c2ccc(N)cc2)no1 [Sulfamethoxazol]
Conditions | Bliss interaction score
B. subtilis 168 | -0.0453
S. aureus DSM 20231 | -0.0246
S. aureus Newman [2] | -0.0317
S. pneumoniae D39V [1] | -0.0659

fitness
Conditions | partner 1 µg/mL | partner 2 µg/mL | partner 4 µg/mL
S. aureus Newman [4], first compound 0.0313 µg/mL | 0.0339 | 0.0298 | 0.0109
S. aureus Newman [4], first compound 0.0625 µg/mL | 0.0352 | 0.0242 | 0.0216
S. aureus Newman [4], first compound 0.125 µg/mL | 0.0377 | 0.0254 | 0.0232
S. pneumoniae D39V [3], first compound 0.03 µg/mL | 0.907 | 0.896 | 0.877
S. pneumoniae D39V [3], first compound 0.06 µg/mL | 0.784 | 0.776 | 0.769
S. pneumoniae D39V [3], first compound 0.12 µg/mL | – | – | 0.579

C/C(=C\C(=O)OCCCCCCCCC(=O)O)C[C@@H]1OC[C@H](C[C@@H]2O[C@H]2[C@@H](C)[C@H](C)O)[C@@H](O)[C@H]1O [Pseudomonic acid] + Cn1nnc(-c2ccc(-c3ccc(N4C[C@H](CO)OC4=O)cc3F)cn2)n1 [Tedizolid]
Conditions | Bliss interaction score
B. subtilis 168 | -0.0611
S. aureus DSM 20231 | 0.0061
S. aureus Newman [2] | 0.011
S. pneumoniae D39V [1] | 0.21

fitness
Conditions | partner 0.03125 µg/mL | partner 0.0625 µg/mL | partner 0.125 µg/mL | partner 0.25 µg/mL | partner 0.5 µg/mL
S. aureus Newman [4], first compound 0.0313 µg/mL | – | 0.0219 | 0.0244 | 0.0038 | –
S. aureus Newman [4], first compound 0.0625 µg/mL | – | 0.0311 | 0.0131 | 0.0239 | –
S. aureus Newman [4], first compound 0.125 µg/mL | – | 0.031 | 0.0219 | 0.018 | –
S. pneumoniae D39V [3], first compound 0.03 µg/mL | 0.963 | 0.965 | 0.82 | 0.777 | –
S. pneumoniae D39V [3], first compound 0.06 µg/mL | 0.881 | 0.9 | 0.759 | 0.767 | 0.516
S. pneumoniae D39V [3], first compound 0.12 µg/mL | 0.925 | 0.923 | 0.707 | 0.587 | 0.382
